Test results reported in patent publication US12472193B2, “Methods and compositions for treating and preventing respiratory related diseases and conditions with xylitol-headgroup lipid analogs” (National Jewish Health, priority 2017, dated 2025).

Columns and labels:
TLR 3 ectodomain = molecular target: T1, TLR 3 ectodomain (Homo sapiens, UniProt O15455); assay: Binding of TLR 3 ectodomain to solid phase phospholipid; settings: for concentration-dependent binding of TLR 3: binding curves; for binding to TLR 3 ectodomain: 0.625 nmol lipid per well, 6 μg/mL TLR 3 protein
T1 construct: purchased R&D system
T1 sequence (O15455 24-704 limits assumed): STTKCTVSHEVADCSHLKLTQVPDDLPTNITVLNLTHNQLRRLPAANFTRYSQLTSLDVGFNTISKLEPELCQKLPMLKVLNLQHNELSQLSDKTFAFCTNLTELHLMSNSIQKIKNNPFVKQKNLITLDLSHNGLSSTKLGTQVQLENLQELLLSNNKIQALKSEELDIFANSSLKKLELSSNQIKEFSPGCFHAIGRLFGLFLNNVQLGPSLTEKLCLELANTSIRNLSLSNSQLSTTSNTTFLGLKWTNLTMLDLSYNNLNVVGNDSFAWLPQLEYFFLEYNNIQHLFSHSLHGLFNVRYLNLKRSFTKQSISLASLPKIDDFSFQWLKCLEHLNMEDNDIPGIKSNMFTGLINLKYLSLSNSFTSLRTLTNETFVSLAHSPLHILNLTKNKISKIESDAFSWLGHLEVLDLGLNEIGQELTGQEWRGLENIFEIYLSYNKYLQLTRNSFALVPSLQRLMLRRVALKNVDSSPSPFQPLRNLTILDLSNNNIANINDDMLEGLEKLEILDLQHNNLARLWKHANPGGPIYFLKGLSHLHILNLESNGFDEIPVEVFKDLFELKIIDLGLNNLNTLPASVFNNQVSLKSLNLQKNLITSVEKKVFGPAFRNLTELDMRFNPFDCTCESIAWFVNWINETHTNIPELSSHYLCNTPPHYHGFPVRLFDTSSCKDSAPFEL
Description: Lipids were dried under a stream of nitrogen and resuspended i 100% ethanol, and 0.625 nmol was added in a 40 μL volume to each well of a half-area, 96-well plate. The solvent was evaporated under warm air for 90 minutes. 120 μL of blocking solution (150 mM NaCl, 20 mM sodium acetate pH 5.5 containing 3% BSA w/v) was added to each well and incubated for 1 hour at room temperature. Wells were then washed with (150 mM NaCl, 20 mM sodium acetate pH 5.5) followed by the addition of 40 μL of 6 μg/mL TLR 3 ectodomain in blocking solution to each well and the plate was incubated at 37° C. for 1 hour. The wells were washed 3 times and 40 μL of human TLR 3 primary antibody, diluted 1:500, was added and incubated overnight at 4° C. After washing out the primary antibody with (150 mM NaCl, 20 mM Tris pH 7.4), a secondary (rabbit anti-goat) antibody conjugated to horseradish peroxidase (HRP), diluted 1:1000, was added in 40 μL aliquots to each well and incubated at 37° C. for 1 hour. After washing, the peroxidase activity was detected with the substrate o-phenylenediamine and the absorbance read at 490 nm to detect degree of binding.
Solid phase lipid binding to fluid phase TLR 3 ectodomain was examined as a potential explanation for the differences in activity. Lipids were dried under a stream of nitrogen and resuspended in 100% ethanol. 0.625 nmol of lipid was plated per well in a 96-well plate and dried for 90 minutes. BSA was used to block non-specific binding and then TLR 3 protein was added to each well at 6 μg/mL and incubated at 37° C. for one hour. After washing out unbound protein, primary antibody was added for detection of TLR 3 and incubated overnight at 4° C. The following day secondary antibody conjugated to HRP was added to the wells and the peroxidase reaction activated by o-phenylenediamine. The absorbance was read at 490 nm to detect binding.

TLR 5 = molecular target: T2, TLR 5 (Homo sapiens, UniProt O60602); assay: Flagellin-induced IL-8 in BEAS2B cells (TLR 5 antagonism); assay type: cell-based; settings: lipid alone
T2 construct: endogenous in cells; host or cells: BEAS2B (ATCC)
T2 sequence (O60602 21-858): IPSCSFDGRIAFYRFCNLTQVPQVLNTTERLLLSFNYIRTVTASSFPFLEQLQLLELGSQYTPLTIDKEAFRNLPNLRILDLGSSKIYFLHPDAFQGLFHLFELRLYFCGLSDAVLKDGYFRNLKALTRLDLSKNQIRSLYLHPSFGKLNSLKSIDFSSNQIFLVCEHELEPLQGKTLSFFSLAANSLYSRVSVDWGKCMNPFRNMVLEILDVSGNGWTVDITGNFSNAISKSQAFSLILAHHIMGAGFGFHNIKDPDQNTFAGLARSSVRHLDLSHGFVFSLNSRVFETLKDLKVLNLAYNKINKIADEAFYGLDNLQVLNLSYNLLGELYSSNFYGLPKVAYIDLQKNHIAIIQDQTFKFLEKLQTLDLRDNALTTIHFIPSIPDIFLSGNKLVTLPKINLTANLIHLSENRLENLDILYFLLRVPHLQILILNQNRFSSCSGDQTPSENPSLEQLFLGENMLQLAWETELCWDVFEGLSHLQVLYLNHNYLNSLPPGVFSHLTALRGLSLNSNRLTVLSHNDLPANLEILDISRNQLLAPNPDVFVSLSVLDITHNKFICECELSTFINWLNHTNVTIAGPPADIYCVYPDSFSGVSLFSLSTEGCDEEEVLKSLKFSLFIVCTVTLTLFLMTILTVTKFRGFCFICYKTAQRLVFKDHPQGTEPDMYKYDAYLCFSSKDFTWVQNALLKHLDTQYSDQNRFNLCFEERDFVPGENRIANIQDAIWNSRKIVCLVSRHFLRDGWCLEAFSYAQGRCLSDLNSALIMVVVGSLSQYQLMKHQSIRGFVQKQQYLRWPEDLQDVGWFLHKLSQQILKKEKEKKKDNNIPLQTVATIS
Description: Human bronchial epithelial cells, BEAS2B, were obtained from ATCC and maintained in bronchial epithelial cell growth medium (BEGM), supplemented with the BulleKit from Lonza in accordance with protocol (M. H. Hudy, S. et al., “Cigarette smoke modulates rhinovirus-induced airway epithelial cell chemokine production.,” Eur. Respir. J., vol. 35, no. 6, pp. 1256-63, June 2010). Cells were cultured at 37 C with 5% carbon dioxide:95% air atmosphere maintained within the incubator. Experiments were conducted in 48-well plates and cells were seated at a density of 5×10^4 per well. After 24 hours, the BEGM medium was replaced with RPMI-1640 medium and incubated for an additional 24 hours. Liposomes were prepared as described above. […] Subsequently, media were collected, diluted and an enzyme-linked immunosorbent assay (ELISA) was performed to quantify IL-8 release by cells.
TLR 5 is an extracellular member of the TLR family. […] To address whether xylitol analogs antagonize TLR activation due to disruption or destruction of all membrane signaling, PX lipids were assessed at the highest concentration used in experiments reported in this example in human bronchial epithelial cells, BEAS2B, for antagonism of flagellin activation of TLR 5. The cytokine, IL-8, was quantified as an output of TLR 5 activation.

[1] = Inflammatory burden caused by intranasal inoculation of 18:1 DEPX; assay type: in vivo, mouse
Description: Doses of 18:1 DEPX ranging from 35 μg to 1 mg were administered to mice by intranasal inoculation. The inflammatory burden caused by delivery of the synthetic lipid to the mouse lung was assessed 24 hours following inoculation. At 24 hours, mice were sacrificed and BALF was collected. The cells in BALF were quantified and cell populations within the lavage fluid were assessed by staining and cytospin analysis.
In order to determine the dose of 18:1 DEPX that is used in RSV challenge experiments, the toxic effects of the lipid were studied by the inflammatory response it elicits following delivery. A range of doses of 18:1 DEPX, from 35 μg to 1 mg, was instilled intranasally to 6-8 week old female BALB/C mice. Mice were sacrificed 24 hours following lipid delivery to best assess immediate inflammatory response. Mouse lungs were lavaged with 1 mL PBS and BALF was assessed for total inflammatory cellular infiltrates quantitatively and further characterized for cell populations by cytospin.
Following quantification of cells in 1 mL BALF, cells were subjected to cytospin and fixed and stained on microscope slides. 500 cells were counted from each slide and the numbers of macrophages, neutrophils and lymphocytes recorded. Delivery of 18:1 DEPX to mice elicits an inflammatory response determined by the influx of neutrophils found in lavage. […] Therefore, a dose of 100 μg 18:1 DEPX was chosen to perform RSV challenge experiments.

Compound	concentration-dependent binding of TLR 3 (TLR 3 ectodomain)	IL-8 secretion in the absence of Flagellin stimulus (TLR 5)	binding to TLR 3 ectodomain (TLR 3 ectodomain)	further results
CCCCCCC=CCCCCCCCC(=O)OCC(COP(=O)(O)OCC(O)C(O)C(O)CO)OC(=O)CCCCCCCC=CCCCCCC (mixture of isomers) [16:1 DPPX, sn-1-palmitoleoyl, sn-2-palmitoleoyl sn-3 glycerol phosphoxylitol]	significantly different from POPC	stimulate IL-8 secretion over that of the control		
CCCCCCCCCCCCCCOC[C@H](COP(=O)(O)OCC(O)C(O)C(O)CO)OCCCCCCCCCCCCCC (mixture of isomers) [14:0 DEPX, sn-1-O-myristyl, sn-2-O-myristyl sn-3 glycerol phosphoxylitol]			all xylitol analogs except 14:0 DEPX demonstrated specific binding	
CCCCCCCCC=CCCCCCCCCOCC(COP(=O)(O)OCC(O)C(O)C(O)CO)OCCCCCCCCC=CCCCCCCCC (mixture of isomers) [18:1 DEPX, sn-1-O-octadecenyl, sn-2-O-octadecenyl sn-3 glycerol phosphoxylitol]	significantly different from POPC		not statistically different from POPG	BALF cell counts compared to PBS control ([1]; 35 μg, 75 μg, 150 μg and 250 μg intranasal, 24 hours): did not have cell counts distinguishable from the control; neutrophils in BALF (cytospin) ([1]; 75 μg intranasal, 24 hours): significant numbers of neutrophils; BALF cell counts compared to PBS control ([1]; 300 μg, 500 μg and 1 mg intranasal, 24 hours): significantly higher cell counts; mortality ([1]; 1 mg intranasal): One mouse in the group that received 1 mg of 18:1 DEPX died; dose giving significant cellular infiltrates compared to control mice ([1]; intranasal, 24 hours): ≥ 300 µg; doses accompanied with significant cellular infiltrates compared with PBS control ([1]; intranasal, 24 hours): ≥ 300 µg
CCCCCC=CCC=CCCCCCCCC(=O)OCC(COP(=O)(O)OCC(O)C(O)C(O)CO)OC(=O)CCCCCCCC=CCC=CCCCCC (mixture of isomers) [18:2 DLPX, sn-1-linoleoyl, sn-2-linoleoyl sn-3 glycerol phosphoxylitol]		stimulate IL-8 secretion over that of the control	not statistically different from POPG	
CCCCCCCC/C=C\CCCCCCCC(=O)O[C@H](COC(=O)CCCCCCCCCCCCCCC)COP(=O)(O)OCC(O)CO (stereo partly drawn) [POPG, palmitoyl-oleoyl-phosphatidylglycerol, reference compound]	significantly different from POPC		specific binding to TLR 3 ectodomain	
